## O=C1C=CC(=O)N1c1ccccc1Br
In DMF, 278.15 K
  solubility (mole fraction): 0.141
In DMF, 283.15 K
  solubility (mole fraction): 0.163
In DMF, 288.15 K
  solubility (mole fraction): 0.189
In DMF, 293.15 K
  solubility (mole fraction): 0.219
In DMF, 298.15 K
  solubility (mole fraction): 0.253
In DMF, 303.15 K
  solubility (mole fraction): 0.284
In DMF, 308.15 K
  solubility (mole fraction): 0.318
In DMF, 313.15 K
  solubility (mole fraction): 0.363
In DMF, 318.15 K
  solubility (mole fraction): 0.411
In DMF, 323.15 K
  solubility (mole fraction): 0.473
In DMSO, 293.15 K
  solubility (mole fraction): 0.156
In DMSO, 298.15 K
  solubility (mole fraction): 0.177
In DMSO, 303.15 K
  solubility (mole fraction): 0.21
In DMSO, 308.15 K
  solubility (mole fraction): 0.238
In DMSO, 313.15 K
  solubility (mole fraction): 0.288
In DMSO, 318.15 K
  solubility (mole fraction): 0.327
In DMSO, 323.15 K
  solubility (mole fraction): 0.387
In NMP, 278.15 K
  solubility (mole fraction): 0.117
In NMP, 283.15 K
  solubility (mole fraction): 0.131
In NMP, 288.15 K
  solubility (mole fraction): 0.154
In NMP, 293.15 K
  solubility (mole fraction): 0.179
In NMP, 298.15 K
  solubility (mole fraction): 0.212
In NMP, 303.15 K
  solubility (mole fraction): 0.245
In NMP, 308.15 K
  solubility (mole fraction): 0.284
In NMP, 313.15 K
  solubility (mole fraction): 0.324
In NMP, 318.15 K
  solubility (mole fraction): 0.372
In NMP, 323.15 K
  solubility (mole fraction): 0.424
In acetone, 278.15 K
  solubility (mole fraction): 0.0947
In acetone, 283.15 K
  solubility (mole fraction): 0.108
In acetone, 288.15 K
  solubility (mole fraction): 0.125
In acetone, 293.15 K
  solubility (mole fraction): 0.144
In acetone, 298.15 K
  solubility (mole fraction): 0.164
In acetone, 303.15 K
  solubility (mole fraction): 0.19
In acetone, 308.15 K
  solubility (mole fraction): 0.223
In acetone, 313.15 K
  solubility (mole fraction): 0.263
In acetone, 318.15 K
  solubility (mole fraction): 0.306
In acetone, 323.15 K
  solubility (mole fraction): 0.356
In acetonitrile, 278.15 K
  solubility (mole fraction): 0.0291
In acetonitrile, 283.15 K
  solubility (mole fraction): 0.0347
In acetonitrile, 288.15 K
  solubility (mole fraction): 0.0422
In acetonitrile, 293.15 K
  solubility (mole fraction): 0.0521
In acetonitrile, 298.15 K
  solubility (mole fraction): 0.0621
In acetonitrile, 303.15 K
  solubility (mole fraction): 0.0723
In acetonitrile, 308.15 K
  solubility (mole fraction): 0.0857
In acetonitrile, 313.15 K
  solubility (mole fraction): 0.103
In acetonitrile, 318.15 K
  solubility (mole fraction): 0.121
In acetonitrile, 323.15 K
  solubility (mole fraction): 0.139
In cyclohexane, 278.15 K
  solubility (mole fraction): 0.00188
In cyclohexane, 283.15 K
  solubility (mole fraction): 0.00224
In cyclohexane, 288.15 K
  solubility (mole fraction): 0.00275
In cyclohexane, 293.15 K
  solubility (mole fraction): 0.00344
In cyclohexane, 298.15 K
  solubility (mole fraction): 0.00403
In cyclohexane, 303.15 K
  solubility (mole fraction): 0.00487
In cyclohexane, 308.15 K
  solubility (mole fraction): 0.00597
In cyclohexane, 313.15 K
  solubility (mole fraction): 0.00744
In cyclohexane, 318.15 K
  solubility (mole fraction): 0.00927
In cyclohexane, 323.15 K
  solubility (mole fraction): 0.0117
In ethanol, 278.15 K
  solubility (mole fraction): 0.0113
In ethanol, 283.15 K
  solubility (mole fraction): 0.0134
In ethanol, 288.15 K
  solubility (mole fraction): 0.0163
In ethanol, 293.15 K
  solubility (mole fraction): 0.0204
In ethanol, 298.15 K
  solubility (mole fraction): 0.0245
In ethanol, 303.15 K
  solubility (mole fraction): 0.0287
In ethanol, 308.15 K
  solubility (mole fraction): 0.0341
In ethanol, 313.15 K
  solubility (mole fraction): 0.0411
In ethanol, 318.15 K
  solubility (mole fraction): 0.0481
In ethanol, 323.15 K
  solubility (mole fraction): 0.0556
In ethylene glycol, 278.15 K
  solubility (mole fraction): 0.00377
In ethylene glycol, 283.15 K
  solubility (mole fraction): 0.00451
In ethylene glycol, 288.15 K
  solubility (mole fraction): 0.0055
In ethylene glycol, 293.15 K
  solubility (mole fraction): 0.00661
In ethylene glycol, 298.15 K
  solubility (mole fraction): 0.00819
In ethylene glycol, 303.15 K
  solubility (mole fraction): 0.00983
In ethylene glycol, 308.15 K
  solubility (mole fraction): 0.0115
In ethylene glycol, 313.15 K
  solubility (mole fraction): 0.0134
In ethylene glycol, 318.15 K
  solubility (mole fraction): 0.016
In ethylene glycol, 323.15 K
  solubility (mole fraction): 0.0184
In isobutanol, 278.15 K
  solubility (mole fraction): 0.00649
In isobutanol, 283.15 K
  solubility (mole fraction): 0.00819
In isobutanol, 288.15 K
  solubility (mole fraction): 0.00989
In isobutanol, 293.15 K
  solubility (mole fraction): 0.0117
In isobutanol, 298.15 K
  solubility (mole fraction): 0.0141
In isobutanol, 303.15 K
  solubility (mole fraction): 0.0173
In isobutanol, 308.15 K
  solubility (mole fraction): 0.0204
In isobutanol, 313.15 K
  solubility (mole fraction): 0.0234
In isobutanol, 318.15 K
  solubility (mole fraction): 0.0276
In isobutanol, 323.15 K
  solubility (mole fraction): 0.0328
In isopropanol, 278.15 K
  solubility (mole fraction): 0.00861
In isopropanol, 283.15 K
  solubility (mole fraction): 0.0104
In isopropanol, 288.15 K
  solubility (mole fraction): 0.0126
In isopropanol, 293.15 K
  solubility (mole fraction): 0.0157
In isopropanol, 298.15 K
  solubility (mole fraction): 0.019
In isopropanol, 303.15 K
  solubility (mole fraction): 0.0221
In isopropanol, 308.15 K
  solubility (mole fraction): 0.0261
In isopropanol, 313.15 K
  solubility (mole fraction): 0.0317
In isopropanol, 318.15 K
  solubility (mole fraction): 0.0375
In isopropanol, 323.15 K
  solubility (mole fraction): 0.0429
In methanol, 278.15 K
  solubility (mole fraction): 0.0134
In methanol, 283.15 K
  solubility (mole fraction): 0.0162
In methanol, 288.15 K
  solubility (mole fraction): 0.0199
In methanol, 293.15 K
  solubility (mole fraction): 0.0249
In methanol, 298.15 K
  solubility (mole fraction): 0.03
In methanol, 303.15 K
  solubility (mole fraction): 0.0356
In methanol, 308.15 K
  solubility (mole fraction): 0.0421
In methanol, 313.15 K
  solubility (mole fraction): 0.0514
In methanol, 318.15 K
  solubility (mole fraction): 0.0604
In methanol, 323.15 K
  solubility (mole fraction): 0.0702
In n-butanol, 278.15 K
  solubility (mole fraction): 0.00586
In n-butanol, 283.15 K
  solubility (mole fraction): 0.00717
In n-butanol, 288.15 K
  solubility (mole fraction): 0.00848
In n-butanol, 293.15 K
  solubility (mole fraction): 0.0106
In n-butanol, 298.15 K
  solubility (mole fraction): 0.0127
In n-butanol, 303.15 K
  solubility (mole fraction): 0.0147
In n-butanol, 308.15 K
  solubility (mole fraction): 0.0172
In n-butanol, 313.15 K
  solubility (mole fraction): 0.021
In n-butanol, 318.15 K
  solubility (mole fraction): 0.0247
In n-butanol, 323.15 K
  solubility (mole fraction): 0.0284
In n-propanol, 278.15 K
  solubility (mole fraction): 0.00717
In n-propanol, 283.15 K
  solubility (mole fraction): 0.00866
In n-propanol, 288.15 K
  solubility (mole fraction): 0.0106
In n-propanol, 293.15 K
  solubility (mole fraction): 0.0132
In n-propanol, 298.15 K
  solubility (mole fraction): 0.016
In n-propanol, 303.15 K
  solubility (mole fraction): 0.0187
In n-propanol, 308.15 K
  solubility (mole fraction): 0.0225
In n-propanol, 313.15 K
  solubility (mole fraction): 0.0271
In n-propanol, 318.15 K
  solubility (mole fraction): 0.0323
In n-propanol, 323.15 K
  solubility (mole fraction): 0.0372
In water, 278.15 K
  solubility (mole fraction): 0.000175
In water, 283.15 K
  solubility (mole fraction): 0.000217
In water, 288.15 K
  solubility (mole fraction): 0.000277
In water, 293.15 K
  solubility (mole fraction): 0.000348
In water, 298.15 K
  solubility (mole fraction): 0.000443
In water, 303.15 K
  solubility (mole fraction): 0.000543
In water, 308.15 K
  solubility (mole fraction): 0.000684
In water, 313.15 K
  solubility (mole fraction): 0.000812
In water, 318.15 K
  solubility (mole fraction): 0.000979
In water, 323.15 K
  solubility (mole fraction): 0.00119

— BigSolDB 2.1
